Here are results for five compounds from ChEMBL document CHEMBL1201862, “PubChem BioAssay data set” (2004).

The GI50 is the concentration at which growth is held to half of that of the control.

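The compound was tested at five concentrations on cells cultured in 96-well plates, with a 48-hour exposure period. Abbreviation: GI50, concentration required for 50% inhibition of growth.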 The source made the active and inactive calls. Cut-off read from the data, not from the text of the source: active = GI50 up to about 1.1 µM and inactive = higher.

Holding throughout (experiment): DTP human tumour cell line panel, 48 h
In experiment [1] the test system is NCI-H23.
Experiment [2] has as its system SK-MEL-2.
Experiment [3] has as its system SF-268.
The subject of experiment [4] is COLO 205.
The subject of experiment [5] is SF-295.
Experiment [6] relates to OVCAR-5.
Experiment [7] relates to HL-60.
For experiment [8], the system named is A549.
The subject of experiment [9] is OVCAR-4.
The subject of experiment [10] is UACC-62.
Experiment [11] relates to CAKI-1.
The test system of experiment [12] is ACHN.
The test system of experiment [13] is RPMI-8226.
The subject of experiment [14] is K562.
Experiment [15] relates to HCC 2998.
For experiment [16], the system named is SK-MEL-28.
Experiment [17] has as its system RXF 393.

As to `O=C1c2ccccc2C(=O)c2c(O)c(NCCCNCCO)cc(O)c21`, the GI50 is 9.18 µM (inactive) in experiment [1]; 18 µM (inactive) in experiment [2]; 7.91 µM (inactive) in experiment [3]; 5.92 µM (inactive) in experiment [4]; 10.7 µM (inactive) in [5]; 11.3 µM (inactive) in [6]. Besides, the GI50 in [7] was 4.18 µM (inactive); in [8] it was 10.3 µM (inactive); in experiment [9], 10.2 µM (inactive); in experiment [10] it was 18.7 µM (inactive); in [11], 10.2 µM (inactive); in experiment [12] it was 3.82 µM (inactive). Besides, the GI50 was 7.59 µM (inactive) in experiment [13], 1.66 µM (inactive) in [14], 3.06 µM (inactive) in experiment [15] and 16.2 µM (inactive) in experiment [16].
On to `COc1ccc(C(=O)Nc2ccccc2)cc1[N+](=O)[O-]`, for which the GI50 in experiment [1], in [2], in experiment [3], in [4], in experiment [5] and in [8] was > 100 µM (inactive) each time. Also, the GI50 was 76.7 µM (inactive) in experiment [17]; > 100 µM (inactive) in [10]; > 100 µM (inactive) in experiment [11]; > 100 µM (inactive) in experiment [13]; > 100 µM (inactive) in experiment [14]; > 100 µM (inactive) in experiment [16].
In the case of `Cc1cc(O)cc2c1O[C@@]1(C)CCC3[C@@]4(C)CC[C@H](O)C(C)(C)C4CC[C@@]3(C)[C@H]1C2` (stereo partly specified), the GI50 in experiment [1] was 10 µM (inactive); in experiment [4], 17.5 µM (inactive); in experiment [5] it was 2.35 µM (inactive); in experiment [7], 2.99 µM (inactive); in experiment [8], 5.15 µM (inactive); in experiment [17], 3.56 µM (inactive). For the same compound, the GI50 is 8.11 µM (inactive) in experiment [10]; 6.81 µM (inactive) in [11]; 5.24 µM (inactive) in [12]; 2.18 µM (inactive) in experiment [13]; 2.47 µM (inactive) in experiment [14]; 6.82 µM (inactive) in experiment [16].
As to `O=C1NC2C3CC(OCc4ccccc4)(OCc4ccccc4)C2OC3O1` (stereo unspecified), the GI50 in [1], in experiment [2], in [3], in experiment [4], in [5] and in experiment [6] was > 50 µM (inactive) throughout. The GI50 in experiment [7] is > 50 µM (inactive); in experiment [8] it was > 50 µM (inactive); in experiment [9], < 0.005 µM (active); in [10] it was > 50 µM (inactive); in experiment [11] it was > 50 µM (inactive); in experiment [13] it was > 50 µM (inactive). In addition, the GI50 in experiment [14], in experiment [15] and in experiment [16] was > 50 µM (inactive) throughout.
As for `CCOC(=O)c1[nH]c2c(OC)n[n+]([O-])cc2c1[N+](=O)[O-]`, the GI50 in experiment [1] was 10 µM (inactive); in [2], 19.8 µM (inactive); in [3], 32 µM (inactive); in experiment [4], 25.1 µM (inactive); in experiment [5] it was 37.2 µM (inactive); in [6] it was 19.6 µM (inactive). Further, the GI50 in [7] was 19.7 µM (inactive); in experiment [8] it was 88.5 µM (inactive); in [17] it was 15.8 µM (inactive); in experiment [9] it was 19.8 µM (inactive); in experiment [10] it was 19.5 µM (inactive); in [12], 17.3 µM (inactive). Also, the GI50 is 18.1 µM (inactive) in experiment [13], 14.4 µM (inactive) in experiment [14], 10 µM (inactive) in experiment [15] and 15.7 µM (inactive) in experiment [16].
